Data reported in BigSolDB 2.1.

O=C(O)c1ccc(C(=O)O)cc1
solubility (mole fraction)
Conditions | 303.2 K | 313.2 K | 323.2 K | 333.2 K | 343.2 K | 353.2 K | 363.2 K
in DMAc | 0.016 | 0.0211 | 0.0269 | 0.0331 | 0.0385 | 0.0452 | 0.0524
in NMP | 0.0133 | 0.0155 | 0.0188 | 0.0216 | 0.0256 | 0.0287 | 0.0328
